Test results taken from ChEMBL document CHEMBL2384940, “Discovery of (R)-(2-fluoro-4-((-4-methoxyphenyl)ethynyl)phenyl) (3-hydroxypiperidin-1-yl)methanone (ML337), an mGlu3 selective and CNS penetrant negative allosteric modulator (NAM)” (J Med Chem, 2013).
Converted amounts (≈) assume the structure as drawn. The source made the active and inactive calls. No cut-off for these calls is given here.

Legend:
[1] = biological target: Metabotropic glutamate receptor 3 (Rattus norvegicus, UniProt P31422); assay: Negative allosteric modulation of rat mGlu3 receptor transfected in human TREX cells assessed as inhibition of glutamate-induced calcium mobilization after 2.5 mins; type: functional, cell-based
Metabotropic glutamate receptor 3, sequence (P31422 whole entry): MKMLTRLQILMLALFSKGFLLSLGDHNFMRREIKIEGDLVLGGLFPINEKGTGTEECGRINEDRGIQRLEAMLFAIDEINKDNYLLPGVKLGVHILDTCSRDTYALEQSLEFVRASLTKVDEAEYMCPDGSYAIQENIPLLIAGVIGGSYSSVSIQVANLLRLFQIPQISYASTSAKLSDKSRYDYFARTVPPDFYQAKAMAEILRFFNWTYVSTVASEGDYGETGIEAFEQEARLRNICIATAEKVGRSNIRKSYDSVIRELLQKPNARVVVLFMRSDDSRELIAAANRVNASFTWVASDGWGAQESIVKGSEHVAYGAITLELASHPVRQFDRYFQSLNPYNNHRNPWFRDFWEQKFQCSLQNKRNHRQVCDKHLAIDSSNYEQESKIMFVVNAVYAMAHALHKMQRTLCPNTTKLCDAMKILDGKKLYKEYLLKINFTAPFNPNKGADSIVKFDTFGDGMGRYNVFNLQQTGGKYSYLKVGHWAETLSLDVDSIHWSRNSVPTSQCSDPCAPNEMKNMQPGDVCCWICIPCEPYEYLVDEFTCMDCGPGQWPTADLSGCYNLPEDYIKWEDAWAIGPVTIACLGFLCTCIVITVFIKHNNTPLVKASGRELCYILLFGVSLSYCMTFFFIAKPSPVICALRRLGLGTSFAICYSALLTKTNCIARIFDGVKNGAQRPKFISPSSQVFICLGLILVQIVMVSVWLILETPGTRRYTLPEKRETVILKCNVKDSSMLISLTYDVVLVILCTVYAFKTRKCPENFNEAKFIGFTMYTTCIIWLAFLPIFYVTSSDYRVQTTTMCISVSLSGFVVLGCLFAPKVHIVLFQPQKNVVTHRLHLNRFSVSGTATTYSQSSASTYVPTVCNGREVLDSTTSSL

[2] = biological target: Metabotropic glutamate receptor 3 (Rattus norvegicus) (UniProt P31422); assay: Negative allosteric modulation of rat mGlu3 receptor transfected in human TREX cells after 2.5 mins by calcium mobilization assay relative to glutamate; type: functional, cell-based; parameters: concentration or dose not given beside the values
Metabotropic glutamate receptor 3 (Rattus norvegicus), sequence (P31422 23-879 limits assumed): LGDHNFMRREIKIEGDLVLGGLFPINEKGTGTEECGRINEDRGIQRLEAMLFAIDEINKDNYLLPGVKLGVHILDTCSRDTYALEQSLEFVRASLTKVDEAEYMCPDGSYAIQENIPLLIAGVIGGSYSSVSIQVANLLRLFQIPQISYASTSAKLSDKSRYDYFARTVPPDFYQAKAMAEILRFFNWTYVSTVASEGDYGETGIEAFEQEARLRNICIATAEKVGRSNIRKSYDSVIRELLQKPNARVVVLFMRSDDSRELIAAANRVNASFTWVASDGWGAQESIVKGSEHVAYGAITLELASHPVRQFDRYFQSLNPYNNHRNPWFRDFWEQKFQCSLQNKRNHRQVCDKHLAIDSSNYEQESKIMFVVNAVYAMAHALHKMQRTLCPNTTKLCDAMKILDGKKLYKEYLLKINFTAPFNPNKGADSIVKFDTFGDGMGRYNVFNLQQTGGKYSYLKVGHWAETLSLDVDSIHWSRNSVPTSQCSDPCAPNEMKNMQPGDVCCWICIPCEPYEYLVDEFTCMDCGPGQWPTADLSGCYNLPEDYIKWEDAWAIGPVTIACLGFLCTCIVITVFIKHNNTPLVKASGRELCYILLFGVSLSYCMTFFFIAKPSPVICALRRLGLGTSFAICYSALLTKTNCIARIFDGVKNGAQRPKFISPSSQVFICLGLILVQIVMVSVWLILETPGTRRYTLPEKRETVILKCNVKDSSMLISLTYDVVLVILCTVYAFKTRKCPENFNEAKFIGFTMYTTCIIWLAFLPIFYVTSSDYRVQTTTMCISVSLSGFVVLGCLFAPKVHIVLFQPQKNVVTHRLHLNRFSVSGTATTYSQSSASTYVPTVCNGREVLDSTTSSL

[3] = biological target: Metabotropic glutamate receptor 2 (Rattus norvegicus, UniProt P31421); assay: Negative allosteric modulation of rat mGlu2 receptor transfected in HEK293 cells assessed as inhibition of glutamate-induced calcium mobilization after 2.5 mins; type: functional, cell-based
Metabotropic glutamate receptor 2, sequence (P31421 whole entry): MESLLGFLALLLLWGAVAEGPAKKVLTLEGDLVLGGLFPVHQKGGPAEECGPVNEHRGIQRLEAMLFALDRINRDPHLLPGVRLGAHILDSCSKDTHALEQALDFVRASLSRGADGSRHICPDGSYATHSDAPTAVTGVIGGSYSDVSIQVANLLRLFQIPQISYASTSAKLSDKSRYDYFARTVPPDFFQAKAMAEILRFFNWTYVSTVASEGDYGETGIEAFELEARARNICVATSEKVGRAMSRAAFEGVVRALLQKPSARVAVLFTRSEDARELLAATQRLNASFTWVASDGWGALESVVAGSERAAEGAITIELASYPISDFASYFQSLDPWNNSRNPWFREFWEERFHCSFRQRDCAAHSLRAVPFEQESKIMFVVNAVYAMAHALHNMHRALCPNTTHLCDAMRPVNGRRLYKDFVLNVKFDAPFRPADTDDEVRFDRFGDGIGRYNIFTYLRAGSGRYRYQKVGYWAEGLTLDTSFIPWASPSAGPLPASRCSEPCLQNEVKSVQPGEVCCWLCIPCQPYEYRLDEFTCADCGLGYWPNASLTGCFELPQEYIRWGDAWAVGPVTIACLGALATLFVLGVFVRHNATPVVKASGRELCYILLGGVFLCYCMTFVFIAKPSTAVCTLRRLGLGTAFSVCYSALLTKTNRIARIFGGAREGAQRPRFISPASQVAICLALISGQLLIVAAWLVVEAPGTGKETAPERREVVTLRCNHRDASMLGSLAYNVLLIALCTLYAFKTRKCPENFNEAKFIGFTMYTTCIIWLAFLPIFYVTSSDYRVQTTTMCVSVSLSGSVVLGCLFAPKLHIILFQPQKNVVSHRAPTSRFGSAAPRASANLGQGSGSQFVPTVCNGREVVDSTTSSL

Liver microsomes = assay: Metabolic stability in human liver microsomes at 1 uM; type: ADME, Microsome
[4] = biological target: Metabotropic glutamate receptor 3 (Rattus norvegicus) (UniProt P31422); assay: Negative allosteric modulation of rat mGlu3 receptor transfected in human TREX cells assessed as non-competitive decrease in glutamate EC80; type: cell-based
[5] = biological target: Metabotropic glutamate receptor 3 (Rattus norvegicus) (UniProt P31422); assay: Negative allosteric modulation of rat mGlu3 receptor transfected in human TREX cells assessed as inhibition of glutamate/LY379268-induced calcium mobilization; type: functional, cell-based
[6] = biological target: 5-hydroxytryptamine receptor 2B (Homo sapiens) (UniProt P41595); assay: Binding affinity to human 5-HT2B receptor at 10 uM by radioligand displacement assay relative to control
5-hydroxytryptamine receptor 2B (Homo sapiens), sequence (P41595 whole entry): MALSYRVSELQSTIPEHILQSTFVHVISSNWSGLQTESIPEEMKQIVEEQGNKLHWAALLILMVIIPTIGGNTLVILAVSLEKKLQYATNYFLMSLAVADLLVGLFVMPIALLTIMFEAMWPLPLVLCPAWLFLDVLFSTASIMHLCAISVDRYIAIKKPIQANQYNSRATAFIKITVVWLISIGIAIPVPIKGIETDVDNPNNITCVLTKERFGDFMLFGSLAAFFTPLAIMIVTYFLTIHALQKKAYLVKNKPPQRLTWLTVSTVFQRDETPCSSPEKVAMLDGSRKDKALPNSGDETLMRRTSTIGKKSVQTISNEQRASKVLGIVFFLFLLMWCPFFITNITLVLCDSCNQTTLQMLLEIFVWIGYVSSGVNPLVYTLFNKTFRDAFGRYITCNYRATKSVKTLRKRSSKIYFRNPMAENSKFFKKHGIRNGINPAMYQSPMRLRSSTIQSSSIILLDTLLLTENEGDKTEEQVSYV

[7] = biological target: Sodium-dependent dopamine transporter (Homo sapiens) (UniProt Q01959); assay: Binding affinity to human DAT at 10 uM by radioligand displacement assay relative to control
Plasma [8] = assay: Plasma protein binding in mouse at 5 uM after 4 hrs by LC/MS/MS analysis; type: ADME, cell-free
[9] = Solubility of the compound in PBS; type: physicochemical; conditions: buffer
Plasma [10] = assay: Fraction unbound in human plasma at 5 uM after 4 hrs by LC/MS/MS analysis; type: ADME, cell-free
Plasma [11] = assay: Plasma protein binding in human at 5 uM after 4 hrs by LC/MS/MS analysis; type: ADME, cell-free
Plasma [12] = assay: Fraction unbound in mouse plasma at 5 uM after 4 hrs by LC/MS/MS analysis; type: ADME, cell-free
Plasma [13] = assay: Fraction unbound in rat plasma at 5 uM after 4 hrs by LC/MS/MS analysis; type: ADME, cell-free
Cytochrome P450 2D6 = Cytochrome P450 2D6 (Homo sapiens, UniProt P10635); assay: Inhibition of CYP2D6 in human liver microsomes using dextromethorphan as substrate incubated for 15 mins prior to NADPH addition measured after 8 mins by LC/MS/MS analysis; type: ADME, Microsome
Cytochrome P450 2C9 = Cytochrome P450 2C9 (Homo sapiens, UniProt P11712); assay: Inhibition of CYP2C9 in human liver microsomes using diclofenac as substrate incubated for 15 mins prior to NADPH addition measured after 8 mins by LC/MS/MS analysis; type: ADME, Microsome
Cytochrome P450 2C9, sequence (P11712 whole entry): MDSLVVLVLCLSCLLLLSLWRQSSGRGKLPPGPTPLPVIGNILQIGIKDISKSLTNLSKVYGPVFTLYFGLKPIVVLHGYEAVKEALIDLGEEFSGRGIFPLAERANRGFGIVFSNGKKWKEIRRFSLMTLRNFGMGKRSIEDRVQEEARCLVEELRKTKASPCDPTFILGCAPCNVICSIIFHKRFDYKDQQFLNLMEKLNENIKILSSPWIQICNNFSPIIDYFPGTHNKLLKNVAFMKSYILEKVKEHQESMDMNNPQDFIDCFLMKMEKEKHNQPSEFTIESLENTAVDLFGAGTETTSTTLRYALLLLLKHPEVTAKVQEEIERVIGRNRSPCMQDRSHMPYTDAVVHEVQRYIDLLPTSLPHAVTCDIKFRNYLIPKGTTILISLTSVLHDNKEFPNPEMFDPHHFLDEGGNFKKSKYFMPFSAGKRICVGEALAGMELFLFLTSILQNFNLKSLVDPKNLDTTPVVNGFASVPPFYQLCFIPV

Cytochrome P450 1A2 = biological target: T1, Cytochrome P450 1A2 (Homo sapiens, UniProt P05177); assay: Inhibition of CYP1A2 in human liver microsomes using phenacetin as substrate incubated for 15 mins prior to NADPH addition measured after 8 mins by LC/MS/MS analysis; type: ADME, Microsome
T1 sequence (P05177 whole entry): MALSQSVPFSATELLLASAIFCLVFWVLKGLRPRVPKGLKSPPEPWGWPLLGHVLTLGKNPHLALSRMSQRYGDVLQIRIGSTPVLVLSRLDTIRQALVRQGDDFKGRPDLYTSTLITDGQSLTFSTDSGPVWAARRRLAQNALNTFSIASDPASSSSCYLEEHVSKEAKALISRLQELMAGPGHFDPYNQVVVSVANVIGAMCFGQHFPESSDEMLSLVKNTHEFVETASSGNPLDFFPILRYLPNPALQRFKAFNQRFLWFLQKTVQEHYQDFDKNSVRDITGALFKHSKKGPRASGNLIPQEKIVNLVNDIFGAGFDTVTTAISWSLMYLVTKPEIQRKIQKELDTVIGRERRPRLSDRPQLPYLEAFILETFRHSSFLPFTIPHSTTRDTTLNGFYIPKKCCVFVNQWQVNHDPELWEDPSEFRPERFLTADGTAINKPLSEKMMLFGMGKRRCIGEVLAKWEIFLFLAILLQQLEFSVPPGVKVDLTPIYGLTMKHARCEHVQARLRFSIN

[14] = biological target: Metabotropic glutamate receptor 7 (Homo sapiens) (UniProt Q14831); assay: Negative allosteric modulation of mGlu7 receptor (unknown origin) up to 30 uM
[15] = biological target: Metabotropic glutamate receptor 1 (Homo sapiens) (UniProt Q13255); assay: Negative allosteric modulation of mGlu1 receptor (unknown origin) up to 30 uM
[16] = biological target: Metabotropic glutamate receptor 4 (Homo sapiens) (UniProt Q14833); assay: Negative allosteric modulation of mGlu4 receptor (unknown origin) up to 30 uM
[17] = biological target: Metabotropic glutamate receptor 5 (Homo sapiens) (UniProt P41594); assay: Negative allosteric modulation of mGlu5 receptor (unknown origin) up to 30 uM
Metabotropic glutamate receptor 5 (Homo sapiens), sequence (P41594 21-1212 limits assumed): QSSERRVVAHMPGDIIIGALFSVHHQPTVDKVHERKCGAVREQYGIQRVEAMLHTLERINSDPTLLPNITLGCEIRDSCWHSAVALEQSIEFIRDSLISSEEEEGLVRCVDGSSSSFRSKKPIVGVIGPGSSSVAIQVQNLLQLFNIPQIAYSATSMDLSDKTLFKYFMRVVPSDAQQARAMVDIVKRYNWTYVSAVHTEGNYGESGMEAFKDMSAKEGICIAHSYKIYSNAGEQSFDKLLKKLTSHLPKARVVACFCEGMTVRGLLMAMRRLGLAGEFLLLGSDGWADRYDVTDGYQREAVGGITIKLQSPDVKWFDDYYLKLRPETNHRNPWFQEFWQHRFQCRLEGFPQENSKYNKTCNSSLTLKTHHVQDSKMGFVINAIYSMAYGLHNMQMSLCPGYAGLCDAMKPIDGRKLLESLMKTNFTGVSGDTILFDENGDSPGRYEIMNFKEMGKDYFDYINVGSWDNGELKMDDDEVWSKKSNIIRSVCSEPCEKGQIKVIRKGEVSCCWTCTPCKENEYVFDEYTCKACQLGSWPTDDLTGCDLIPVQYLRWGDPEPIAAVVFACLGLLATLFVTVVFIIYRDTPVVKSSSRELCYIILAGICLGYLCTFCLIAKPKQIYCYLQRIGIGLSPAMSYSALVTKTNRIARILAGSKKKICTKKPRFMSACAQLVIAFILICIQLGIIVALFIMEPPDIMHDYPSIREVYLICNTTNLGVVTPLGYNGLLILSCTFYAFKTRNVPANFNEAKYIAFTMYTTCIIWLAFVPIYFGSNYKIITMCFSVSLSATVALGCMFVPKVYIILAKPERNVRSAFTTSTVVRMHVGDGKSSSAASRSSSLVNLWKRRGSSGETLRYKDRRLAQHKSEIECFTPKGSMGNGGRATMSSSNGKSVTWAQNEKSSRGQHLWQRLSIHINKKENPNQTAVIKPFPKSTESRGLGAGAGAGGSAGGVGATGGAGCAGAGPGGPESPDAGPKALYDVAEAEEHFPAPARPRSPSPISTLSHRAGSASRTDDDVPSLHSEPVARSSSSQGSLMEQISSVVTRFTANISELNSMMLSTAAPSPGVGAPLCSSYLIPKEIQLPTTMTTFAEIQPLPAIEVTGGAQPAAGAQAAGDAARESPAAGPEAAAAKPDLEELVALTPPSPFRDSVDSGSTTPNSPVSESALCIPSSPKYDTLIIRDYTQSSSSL

[18] = biological target: Metabotropic glutamate receptor 6 (Homo sapiens) (UniProt O15303); assay: Negative allosteric modulation of mGlu6 receptor (unknown origin) up to 30 uM
[19] = biological target: Metabotropic glutamate receptor 8 (Homo sapiens) (UniProt O00222); assay: Negative allosteric modulation of mGlu8 receptor (unknown origin) up to 30 uM
Homo sapiens = species: Homo sapiens; assay: Selectivity ratio of IC50 for human mGlu2 receptor to IC50 for human mGlu3 receptor

In the case of `COc1ccc(-c2nnc(-c3ccc(C(=O)N4CCC[C@@H](CO)C4)cc3)o2)cc1`, the IC50 ([1]; read-out: IC50) is reported as > 10 µM.

In the case of `COc1ccc(C#Cc2ccc(C(=O)N3CCC[C@@H](O)C3)cc2)cc1`, the IC50 ([1]; read-out: IC50) is reported as 0.65 µM, the Activity [2] is reported as 2% and the IC50 [3] is reported as > 30 µM.

With `COc1ccc(C#Cc2ccc(C(=O)N3CCC[C@@H](CO)C3)cc2)cc1F` the IC50 ([1]; read-out: IC50) was > 10 µM.

In the case of `COc1ccc(C#Cc2ccc(C(=O)N3CCC[C@@H](O)C3)cc2F)cc1`, the IC50 ([1]; read-out: IC50) is reported as 0.456 µM, the Activity [2] is reported as 1.64% and the IC50 [3] is reported as > 30 µM.

With `COc1ccc(C#Cc2ccc(C(=O)N3CCC[C@@H](CO)C3)cc2)cc1` the IC50 ([1]; read-out: IC50) was > 10 µM.

For `O=C(c1ccc(C#Cc2ccc(O)cc2)cc1)N1CCC[C@@H](CO)C1`, the IC50 ([1]; read-out: IC50) was > 10 µM.

In the case of `COc1ccc(C#Cc2ccc(C(=O)N3CC[C@H](O)C3)cc2)cc1`, the IC50 ([1]; read-out: pIC50 (converted)) is reported as 27.5 µM and the IC50 [3] is reported as > 30 µM.

In the case of `COc1ccc(C#Cc2ccc(C(=O)N3CC4CCC(=O)C4C3)cc2)cc1` (stereo unspecified), the IC50 ([1]; read-out: pIC50 (converted)) is reported as 2.75 µM, the Activity [2] is reported as 1.6% and the IC50 [3] is reported as > 30 µM.

With `COc1ccc(C#Cc2ccc(C(=O)N3CCCC(OC)C3)cc2)cc1` (stereo unspecified) the IC50 ([1]; read-out: pIC50 (converted)) was 5.5 µM, the Activity [2] was 0% and the IC50 [3] was > 30 µM.

In the case of `O=C(c1ccc(C#Cc2ccc(OC(F)(F)F)cc2)cc1)N1CCC[C@@H](CO)C1`, the IC50 ([1]; read-out: IC50) is reported as > 10 µM.

For `COc1ccc(C#Cc2ccc(C(=O)N3CCC(CO)C3)cc2)cc1` (stereo unspecified), the IC50 ([1]; read-out: pIC50 (converted)) was 7.59 µM, the Activity [2] was 0% and the IC50 [3] was > 30 µM.

For `COc1ccc(C#Cc2ccc(C(=O)N3CC4CCC(O)C4C3)cc2)cc1` (stereo unspecified), the IC50 ([1]; read-out: pIC50 (converted)) was 5.5 µM, the Activity [2] was 1.7% and the IC50 [3] was > 30 µM.

`[2H]C([2H])([2H])Oc1ccc(C#Cc2ccc(C(=O)N3CCC[C@@H](O)C3)c(F)c2)cc1` gave an IC50 ([1]; read-out: IC50) of 0.45 µM.

`[2H]C([2H])([2H])Oc1ccc(C#Cc2ccc(C(=O)N3CCC[C@@H](O)C3)cc2)cc1` gave an IC50 ([1]; read-out: IC50) of 0.31 µM.

For `COc1ccc(C#Cc2ccc(C(=O)N3CCC[C@@H](CO)C3)cc2)cn1`, the IC50 ([1]; read-out: IC50) was > 10 µM.

For `O=C(c1ccc(C#Cc2ccc(Oc3ccccc3)cc2)cc1)N1CCC[C@@H](CO)C1`, the IC50 ([1]; read-out: IC50) was > 10 µM.

For `COc1ccc(C#Cc2ccc(C(=O)N3CCC[C@H](O)C3)cc2)cc1`, the IC50 ([1]; read-out: IC50) was 1.1 µM, the Activity [2] was 1.7% and the IC50 [3] was > 30 µM.

With `COc1ccc(C#Cc2ccc(C(=O)N3CCC[C@@H](O)C3)c(F)c2)cc1` the Stability (Liver microsomes) was “Unstable”, the Activity [4] was “Active” and the Activity [5] was “Active”. It also gave an inhibition [6] of 74%, an inhibition [7] of 71% and a PPB (Plasma [8]) of 97%. For the same compound, the solubility [9] was 7.8 µM (≈ 2.76 µg/mL), the Fu (Plasma [10]) was 0.03 and the PPB (Plasma [11]) was 97%. The Fu (Plasma [12]) was 0.027, the Fu (Plasma [13]) was 0.005 and the IC50 (Cytochrome P450 2D6) was > 30 µM. For the same compound, the IC50 (Cytochrome P450 2C9) was > 30 µM, the IC50 (Cytochrome P450 1A2) was > 30 µM and the IC50 ([1]; read-out: IC50) was 0.593 µM. For the same compound, the IC50 ([1]; read-out: pIC50 (converted)) was 0.603 µM, the Activity [14] was “inactive” and the Activity [2] was 1.9%. For the same compound, the IC50 [3] was > 30 µM, the Activity [15] was “inactive” and the Activity [16] was “inactive”. For the same compound, the Activity [17] was “inactive”, the Activity [18] was “inactive” and the Activity [19] was “inactive”.

For `COc1ccc(C#Cc2ccc(C(=O)N3CCCC(O)C3)cc2)cc1` (racemic), the IC50 ([1]; read-out: IC50) was 0.76 µM, the Activity [2] was 0.4% and the IC50 [3] was > 30 µM.

With `O=C(c1ccc(C#Cc2ccc3c(c2)OCO3)cc1)N1CCC[C@@H](CO)C1` the IC50 ([1]; read-out: IC50) was > 10 µM.

In the case of `COc1ccc(C#Cc2ccc(C(=O)N3CC[C@@H](O)C3)cc2)cc1`, the IC50 ([1]; read-out: pIC50 (converted)) is reported as 10.2 µM, the Activity [2] is reported as 0% and the IC50 [3] is reported as > 30 µM.

For `CSc1ccc(C#Cc2ccc(C(=O)N3CCC[C@@H](CO)C3)cc2)cc1`, the IC50 ([1]; read-out: IC50) was > 10 µM.

For `COc1ccc(C#Cc2ccc(C(=O)N3CCCC(C)(O)C3)cc2)cc1` (stereo unspecified), the IC50 ([1]; read-out: IC50) was 0.711 µM, the Activity [2] was -0.13% and the IC50 [3] was > 30 µM.

With `O=C(c1ccc(C#Cc2ccc3c(c2)OCCO3)cc1)N1CCC[C@@H](CO)C1` the IC50 ([1]; read-out: IC50) was > 10 µM.

Compound `Clc1ccc(CN[C@H]2CCN(c3ncc(Br)cn3)C2)c(Cl)c1` has a Ratio IC50 (Homo sapiens) of 4.

For `COc1ccc(C#Cc2ccc(C(=O)N3CCC[C@@H](CO)C3)cc2)c(F)c1F`, the IC50 ([1]; read-out: IC50) was > 10 µM.

In the case of `COc1ccc(C#Cc2ccc(C(=O)NC(C)CO)cc2)cc1` (stereo unspecified), the IC50 ([1]; read-out: pIC50 (converted)) is reported as 7.59 µM, the Activity [2] is reported as 1.6% and the IC50 [3] is reported as > 30 µM.

In the case of `CC(C)Oc1ccc(C#Cc2ccc(C(=O)N3CCC[C@@H](CO)C3)cc2)cc1`, the IC50 ([1]; read-out: IC50) is reported as > 10 µM.

For `COc1ccc(C#Cc2ccc(C(=O)N3CCC[C@@H](CO)C3)cc2)c(F)c1`, the IC50 ([1]; read-out: IC50) was > 10 µM.

With `CCOc1ccc(C#Cc2ccc(C(=O)N3CCC[C@@H](CO)C3)cc2)cc1` the IC50 ([1]; read-out: IC50) was > 10 µM.
